Data: the supplement of paper PMC8671470

Legend:
Assay in all cases: cell viability (% survival relative to DMSO control, bortezomib = 0%); higher = less cytotoxic
Details in all cases: 72 h
[1] = system: HEL
Method in brief: (§1)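 Reported values are percent survival from duplicate wells, averaged. Fifteen myeloid leukaemia cell lines were treated in 384-well plates with compounds at 1, 10, 100, 1000 or 10000 nM for 72 h at 37 °C in 5% CO2. Signals from CellTiter-Glo luminescence were scaled with vehicle as 100% and a 10 µM positive control as 0%.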

[2] = system: MV4-11
Method in brief: as §1

[3] = system: Mono-Mac-6
Method in brief: as §1

[4] = system: NOMO-1
Method in brief: as §1

Row | SMILES | cell viability ([1]; 1 nM) | cell viability ([1]; 10 nM) | cell viability ([1]; 100 nM) | cell viability ([1]; 1000 nM) | cell viability ([1]; 10000 nM) | cell viability ([2]; 1 nM) | cell viability ([2]; 10 nM) | cell viability ([2]; 100 nM) | cell viability ([2]; 1000 nM) | cell viability ([2]; 10000 nM) | cell viability ([3]; 1 nM) | cell viability ([3]; 10 nM) | cell viability ([3]; 100 nM) | cell viability ([3]; 1000 nM) | cell viability ([3]; 10000 nM) | cell viability ([4]; 1 nM) | cell viability ([4]; 10 nM) | cell viability ([4]; 100 nM) | cell viability ([4]; 1000 nM) | cell viability ([4]; 10000 nM)
1 | O=C(O)C(Cl)Cl [Dichloroacetate] | 102% | 102% | 101% | 97% | 103% | 99.6% | 91.5% | 83.5% | 98.5% | 102% | 92.4% | 92.4% | 113% | 98.8% | 102% | 101% | 98.9% | 102% | 102% | 103%
2 | O=C1Oc2ccccc2C(=O)C1CC1C(=O)Oc2ccccc2C1=O (stereo not given) [Dicumarol] | 109% | 102% | 92% | 101% | 107% | 89.7% | 111% | 87% | 97.5% | 93.6% | 103% | 111% | 86.5% | 95.7% | 106% | 99.4% | 101% | 98.8% | 109% | 96.3%
3 | CC12CCC(O)CC1CCC1C2CCC2(C)C(C3=CC(=O)OC3)CCC12O (stereo not given) [Digitoxigenin] | 102% | 99.1% | 103% | 1.26% | -1.18% | 96.8% | 120% | 100% | 1.01% | -1.41% | 111% | 89.6% | 83% | 1.4% | -1.27% | 110% | 96% | 109% | 11.3% | -1.17%
4 | C[C@H]1O[C@@H](O[C@H]2[C@@H](O)C[C@H](O[C@H]3[C@@H](O)C[C@H](O[C@H]4CC[C@@]5(C)[C@H](CC[C@@H]6[C@@H]5C[C@@H](O)[C@]5(C)[C@@H](C7=CC(=O)OC7)CC[C@]65O)C4)O[C@@H]3C)O[C@@H]2C)C[C@H](O)[C@@H]1O [Digoxin] | 97.3% | 92.9% | 49% | -0.296% | -0.0735% | 110% | 114% | 4.71% | 0.26% | 0.435% | 94.6% | 100% | 13% | -0.503% | -0.351% | 97.9% | 105% | 60.3% | -0.211% | -0.0253%
5 | O=c1c2ccccc2[se]n1-c1ccccc1 [Ebselen] | 102% | 97.3% | 106% | 96.5% | 81.8% | 93% | 92.5% | 93.8% | 99.7% | 68% | 99.1% | 93.8% | 103% | 98.1% | 84.6% | 93.7% | 103% | 97.3% | 94.3% | 102%
6 | Clc1ccc(COC(Cn2ccnc2)c2ccc(Cl)cc2Cl)cc1 (stereo not given) [Econazole] | 106% | 90.4% | 99.1% | 99% | 77.3% | 103% | 83.4% | 89.3% | 57.4% | 25.2% | 102% | 92.1% | 86.7% | 78.4% | 58.8% | 105% | 84.8% | 98.2% | 93.2% | 89.1%
7 | C#Cc1cnc(O)nc1O [Eniluracil] | 100% | 92.2% | 118% | 90.1% | 106% | 102% | 112% | 104% | 108% | 106% | 104% | 125% | 105% | 106% | 97.4% | 96.4% | 103% | 101% | 104% | 109%
